Assay results: US20230201217A1 (priority 2019, published 2023)
Values joined by “and” are separate entries in the source; they are usually repeats but may differ in a detail not shown here. Equal values may be shown once. “Also recorded” adds a separate entry of the source.

How the values were obtained:
[1] = system: male Sprague-Dawley rats; assay: Intracranial self-stimulation (ICSS), frequency-rate procedure
[2] = system: mouse liver; assay: In vivo comet assay
Protocol: The comet assay (alkaline single cell gel electrophoresis) is a microgel electrophoretic technique that detects DNA damage in individual cells. DNA damage can be expressed as DNA single strand breaks, double strand breaks, and strand breaks induced by alkali labile sites. […] For this study, the liver was selected as the tissue for evaluation, since this tissue is expected to contain high concentrations of parent drug and metabolites following oral administration.
Male mice were administered oral doses of 0 (vehicle=5% dextrose), 50, 90 and 120 mg/kg/day by gavage according to the table below. Animals in groups 1-4 were dosed on three consecutive days and euthanized 3 to 4 hours after the last dose by CO2 inhalation. A separate group of animals were dosed with methyl methanesulfonate (MMS) which served as a positive control. Immediately following euthanasia, the liver was removed and collected from each animal.
In this study, comet tail migration, % tail DNA (also known as % tail intensity) and tail moment were determined for each animal/treatment group and served as parameters of DNA damage.

[3] = system: monkeys; assay: Single-dose oral toxicity; type: in vivo, monkey
Protocol: Single doses up to 300-400 mg/kg and 800 mg/kg appeared to be generally well tolerated in monkeys and rats, respectively (one monkey treated with 400 mg/kg died in the 2-week GLP study on Day 1 of dosing). […] In mice, mortality was consistently seen following single doses 150 mg/kg. Preliminary 5-day repeat-dose range-finding studies were conducted in mice, rats and monkeys. The definitive 14-day studies in mouse and monkey yielded generally similar results to those observed in the 5-day studies.

[4] = system: male Sprague Dawley rats; assay: Modified Irwin test, definitive GLP study, male rats; type: in vivo, rat
Protocol: Only male rats were utilized in the assay, as no significant sex-specific effects have been noted in prior toxicology studies.
The dose volume for all groups was 20 mL/kg. Observations for the Irwin test were performed pre-dose (on the day of dosing) and at approximately (±5 minutes) 30, 90, 150, and 240 minutes post-dosing. Body temperature was measured and recorded during each Irwin observation period.

[5] = Stability of oral dosing solution; type: physicochemical
From the text: Most preferably, an oral dose of the composition is used. An oral dosing formulation was validated by a GLP study.

[6] = system: dogs; assay: Single-dose oral toxicity; type: in vivo, dog
[7] = system: dopamine release in the nucleus accumbens shell; settings: 40 mg/kg pretreatment, 19 hours beforehand; cited from earlier work
[8] = system: plasma protein; assay: Plasma protein binding; type: in vitro ADME, Dog
From the text: (§1) There is no information on the protein binding of any of the metabolites.

[9] = system: plasma protein; assay: Plasma protein binding, all species tested; type: in vitro ADME
Protocol: In all the species tested in pre-clinical studies, 18-MC is rapidly absorbed following oral administration with Tmax occurring in less than 0.5 hours following oral administration. After oral administration, the elimination of 18-MC is multi-compartmental. In plasma, 18-MC is highly protein bound (92% to 98%). 18-MC is also rapidly and extensively metabolized, presumably by first pass metabolism. At least […] different metabolites have been detected both in vitro and in vivo, further described below (M1-M9, P1-P3). The major metabolites (those with exposure greater than 10% of the total drug related material) appear to change with the dose and duration of dosing. Major metabolites include M2, M4, M5, M8, M9 and P2 depending on the animal species tested, and the dose and duration of dosing.
as §1

[10] = target: CYP2A6 (Homo sapiens, UniProt P11509); settings: recombinant enzyme
Sequence of CYP2A6 (P11509 whole entry): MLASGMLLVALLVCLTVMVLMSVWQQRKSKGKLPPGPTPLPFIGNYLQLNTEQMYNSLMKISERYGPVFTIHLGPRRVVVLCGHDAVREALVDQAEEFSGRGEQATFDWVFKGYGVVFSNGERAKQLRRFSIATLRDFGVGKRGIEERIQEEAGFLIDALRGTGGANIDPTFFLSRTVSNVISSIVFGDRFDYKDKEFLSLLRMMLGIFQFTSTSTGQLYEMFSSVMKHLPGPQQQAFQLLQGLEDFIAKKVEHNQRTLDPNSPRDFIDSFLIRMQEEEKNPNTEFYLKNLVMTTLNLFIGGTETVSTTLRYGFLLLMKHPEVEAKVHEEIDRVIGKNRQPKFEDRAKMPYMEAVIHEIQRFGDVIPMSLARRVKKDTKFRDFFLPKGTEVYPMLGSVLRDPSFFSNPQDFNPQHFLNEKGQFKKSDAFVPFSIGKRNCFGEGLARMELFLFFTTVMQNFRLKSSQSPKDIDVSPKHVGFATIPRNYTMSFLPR
Protocol: (§2) Control incubations were performed for each assay with appropriate positive inhibitory controls.

[11] = system: 64 neurotransmitter-related binding sites; assay: In vitro radio-ligand receptor and enzyme assays (panel); settings: 100 nM
Protocol: The binding potential of 18-MC with 64 neurotransmitter-related binding sites was evaluated (TABLE 2).

[12] = system: plasma protein; assay: Plasma protein binding; type: in vitro ADME, Rat
From the text: as §1

[13] = target: CYP1A2 (Homo sapiens, UniProt P05177); settings: recombinant enzyme
Sequence of CYP1A2 (P05177 whole entry): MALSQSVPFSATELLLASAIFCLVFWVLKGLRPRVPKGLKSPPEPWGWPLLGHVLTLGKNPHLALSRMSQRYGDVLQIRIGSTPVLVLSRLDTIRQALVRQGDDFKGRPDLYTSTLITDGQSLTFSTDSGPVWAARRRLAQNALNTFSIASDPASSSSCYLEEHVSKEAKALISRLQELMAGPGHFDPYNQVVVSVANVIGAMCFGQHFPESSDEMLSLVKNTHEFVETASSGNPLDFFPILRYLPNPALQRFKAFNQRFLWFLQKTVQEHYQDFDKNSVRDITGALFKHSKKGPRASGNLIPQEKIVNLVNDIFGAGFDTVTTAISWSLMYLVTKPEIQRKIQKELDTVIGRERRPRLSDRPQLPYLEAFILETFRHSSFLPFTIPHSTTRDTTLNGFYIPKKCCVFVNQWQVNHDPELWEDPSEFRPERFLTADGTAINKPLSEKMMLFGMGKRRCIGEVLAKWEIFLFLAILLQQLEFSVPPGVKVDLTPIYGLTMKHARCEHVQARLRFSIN
Protocol: as §2

[14] = target: CYP2D6 (Homo sapiens, UniProt P10635); settings: recombinant enzyme
Sequence of CYP2D6 (P10635 whole entry): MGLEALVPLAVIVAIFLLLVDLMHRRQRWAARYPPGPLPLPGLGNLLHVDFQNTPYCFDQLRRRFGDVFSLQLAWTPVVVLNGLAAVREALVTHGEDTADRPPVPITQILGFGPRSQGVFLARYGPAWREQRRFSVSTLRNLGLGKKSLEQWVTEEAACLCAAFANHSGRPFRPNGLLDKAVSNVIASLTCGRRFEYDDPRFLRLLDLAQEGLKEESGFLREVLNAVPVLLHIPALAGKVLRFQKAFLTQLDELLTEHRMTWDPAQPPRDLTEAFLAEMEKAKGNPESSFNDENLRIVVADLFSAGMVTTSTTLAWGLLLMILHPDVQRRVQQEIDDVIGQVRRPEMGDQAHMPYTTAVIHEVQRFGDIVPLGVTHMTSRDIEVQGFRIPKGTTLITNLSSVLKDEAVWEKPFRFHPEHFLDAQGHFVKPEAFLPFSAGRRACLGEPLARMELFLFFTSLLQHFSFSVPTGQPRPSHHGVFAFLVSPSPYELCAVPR
Protocol: as §2

[15] = target: T1, hERG potassium channel (Homo sapiens, UniProt Q12809); assay: In vitro hERG channel inhibition assay, stably transfected CHO cells, voltage clamp; type: cell-based; settings: average of 3 recordings; read-out: IC50, hERG current inhibition
T1 construct: expressed in transfected cells; host or cells: CHO, stably transfected
T1 sequence (Q12809 whole entry): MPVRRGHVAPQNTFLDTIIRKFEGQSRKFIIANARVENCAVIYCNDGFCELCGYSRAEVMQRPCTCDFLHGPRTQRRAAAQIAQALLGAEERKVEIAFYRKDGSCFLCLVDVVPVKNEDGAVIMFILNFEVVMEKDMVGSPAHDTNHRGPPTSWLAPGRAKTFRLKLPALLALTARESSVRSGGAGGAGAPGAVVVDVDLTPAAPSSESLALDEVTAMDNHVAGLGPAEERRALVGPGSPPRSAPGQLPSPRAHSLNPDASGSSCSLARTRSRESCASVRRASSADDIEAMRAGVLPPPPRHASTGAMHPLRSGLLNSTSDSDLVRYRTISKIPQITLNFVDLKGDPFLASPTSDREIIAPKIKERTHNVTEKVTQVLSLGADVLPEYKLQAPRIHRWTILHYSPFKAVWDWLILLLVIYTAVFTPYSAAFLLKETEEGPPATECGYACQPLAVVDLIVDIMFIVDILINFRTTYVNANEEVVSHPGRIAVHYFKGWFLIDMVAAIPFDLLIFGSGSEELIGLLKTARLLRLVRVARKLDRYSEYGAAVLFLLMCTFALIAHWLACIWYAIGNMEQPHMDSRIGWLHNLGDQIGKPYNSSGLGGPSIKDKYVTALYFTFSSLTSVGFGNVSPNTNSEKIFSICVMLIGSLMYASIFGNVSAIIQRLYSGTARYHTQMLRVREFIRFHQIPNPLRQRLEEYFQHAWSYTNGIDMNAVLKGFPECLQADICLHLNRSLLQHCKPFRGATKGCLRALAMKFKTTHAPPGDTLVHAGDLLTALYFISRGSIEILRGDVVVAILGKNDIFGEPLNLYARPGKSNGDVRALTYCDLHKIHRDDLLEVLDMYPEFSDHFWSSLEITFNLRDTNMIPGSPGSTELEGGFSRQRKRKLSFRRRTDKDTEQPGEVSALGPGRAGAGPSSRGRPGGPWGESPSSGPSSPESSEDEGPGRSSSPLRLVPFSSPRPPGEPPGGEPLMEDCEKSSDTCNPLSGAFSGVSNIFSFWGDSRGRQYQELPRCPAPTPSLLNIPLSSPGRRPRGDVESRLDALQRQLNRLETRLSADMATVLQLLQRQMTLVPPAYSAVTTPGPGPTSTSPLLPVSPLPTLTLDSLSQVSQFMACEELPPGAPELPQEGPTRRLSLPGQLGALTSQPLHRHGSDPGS
Protocol: The potential for 18-MC to inhibit the hERG potassium channel was evaluated in a stably transfected Chinese Hamster Ovary (CHO) cell line expressing hERG mRNA (FIG. 12). […] Cells were voltage clamped at a holding potential of −80 mV. The hERG current was then activated by a depolarizing step ([…] for 300 ms) and repeated every 12 s. 18-MC was prepared from 10 mM methanol stock solutions. The hERG current inhibition was calculated from the average of 3 separate recordings.

[16] = Plasma 18-MC concentration in rats, 5-day dosing self-administration study
Protocol: Blood samples were collected from animals immediately after their cocaine self-administration at approximately 2 hours post dose in the first day of dosing (Day 0), and the last day of dosing (Day 4).

[17] = Dose Day 0, post dose (~2 h), 600 mg/kg/day

COCCC1CC2CN3CCc4c([nH]c5ccccc45)C(C(=O)OC)(C2)C13.Cl (stereo not shown) [18-MC HCl, 18-Methoxycoronaridine hydrochloride]
M50, Test, mean (SEM) ([1]; 10 mg/kg i.p.): 1.94 (0.02) log/Hz
Threshold (T0), Test, mean (SEM) ([1]; 10 mg/kg i.p.): 1.80 (0.03) log/Hz
M50, Test, mean (SEM) ([1]; 40 mg/kg i.p.): 1.95 (0.02) log/Hz
Threshold (T0), Test, mean (SEM) ([1]; 40 mg/kg i.p.): 1.85 (0.03) log/Hz
M50, Test, mean (SEM) ([1]; 56 mg/kg i.p.): 1.95 (0.02) log/Hz
Threshold (T0), Test, mean (SEM) ([1]; 56 mg/kg i.p.): 1.85 (0.02) log/Hz
effect on ICSS frequency-rate curves, M50 and threshold (T0) ([1]; 10, 40, 56 mg/kg i.p., 45 minutes before test session, hydrochloride): did not affect; also recorded: no main effect
mean % tail DNA ([2]; 90 mg/kg/day, vehicle 1.27+/−0.52): 2.60+/−0.7%
mouse comet assay result ([2]; 50, 90, 120 mg/kg/day, 3 days): negative
single dose generally well tolerated [3]: 300 to 400 mg/kg
Irwin: Increased pupil diameter, occurrence(s)/No. of males ([4]; 200 mg/kg): 1/6
Irwin: Increased touch response, occurrence(s)/No. of males ([4]; 200 mg/kg): 1/6
mean decrease in body temperature from pre-dose ([4]; 200 mg/kg p.o.): up to 1.5 °C
Irwin: Abnormal gait (walking low on limbs), occurrence(s)/No. of males ([4]; 400 mg/kg): 1/6
Irwin: Decreased alertness, occurrence(s)/No. of males (observation period, min) ([4]; 400 mg/kg): 1/6
Irwin: Increased pupil diameter, occurrence(s)/No. of males ([4]; 400 mg/kg): 1/6
mean decrease in body temperature from pre-dose ([4]; 400 mg/kg p.o.): ≤ 2.3 °C
Irwin: Abnormal gait (walking low on limbs), occurrence(s)/No. of males ([4]; 600 mg/kg): 1/6
Irwin: Diarrhea, occurrence(s)/No. of males ([4]; 600 mg/kg): 1/6
mean decrease in body temperature from pre-dose ([4]; 600 mg/kg p.o.): ≤ 2.3 °C
Irwin: Abnormal gait (waddling), occurrence(s)/No. of males (observation period, min) ([4]; 600 mg/kg, hydrochloride): 1/6 and 2/6 and 3/6 and 4/6
stability of dosing solution ([5]; after 3 freeze-thaw (20° C.) cycles): met the required stability criteria
homogeneity, concentration acceptability, solubility and stability of dosing formulation ([5]; after 10 days of refrigerated storage): met the applicable ICH criteria
dose at which emesis was seen [6]: 100 mg/kg
acute dopamine response to cocaine [7]: little effect
sensitized dopamine response to cocaine [7]: abolished the sensitized dopamine response

COCC[C@H]1CC2CN3CCc4c([nH]c5ccccc45)[C@](C(=O)OC)(C2)[C@H]13 [18-MC, 18-methoxycoronaridine]
% Bound Mean ± SD ([8]; 200 ng/mL): 92.1 ± 1.78%
% Bound Mean ± SD ([8]; 600 ng/mL): 94.8 ± 1.42%
% Bound Mean ± SD ([8]; 5,000 ng/mL): 93.2 ± 0.153%
Average % Bound Mean ± SD ([8]; average of 3 concentrations): 93.4 ± 1.36%
protein bound in plasma [9]: 95-98% and 92-98%
IC50 [10]: > 100 µM
binding activity [11]: no binding activity
% Bound Mean ± SD ([12]; 200 ng/mL): 92.9 ± 0.351%
% Bound Mean ± SD ([12]; 600 ng/mL): 94.9 ± 0.794%
% Bound Mean ± SD ([12]; 5,000 ng/mL): 90.2 ± 0.153%
Average % Bound Mean ± SD ([12]; average of 3 concentrations): 92.7 ± 2.36%
IC50 [13]: > 100 µM
IC50 [14]: > 100 µM
IC50 [15]: 1.46 µM and 1.6 µM
Plasma 18-MC concentration, Average [16, 17]: 11,442 ng/mL
Plasma 18-MC concentration, individual animals [16, 17]: 3,450 ng/mL and 12,600 ng/mL and 11,300 ng/mL and 13,900 ng/mL and 14,200 ng/mL and 13,200 ng/mL
Plasma 18-MC concentration, Average ([16]; Dose Day 4, post dose): 7,524 ng/mL
Plasma 18-MC concentration, individual animals ([16]; Dose Day 4, post dose): 9,030 ng/mL and 3,760 ng/mL and 8,040 ng/mL and 10,500 ng/mL and 6,290 ng/mL
Plasma 18-MC concentration, Average ([16]; Dose Day 4, pre dose): 2,998 ng/mL
Plasma 18-MC concentration, individual animals ([16]; Dose Day 4, pre dose): 3,840 ng/mL and 1,680 ng/mL and 3,020 ng/mL and 2,720 ng/mL and 3,730 ng/mL
